Values quoted from earlier work as cited in patent US20260224647A1, “Microbial compositions for treating joint inflammation” (Katholieke Universiteit Leuven, priority 2023, published 2026).

System: rheumatoid arthritis
Conditions: twice daily administration

## Lactobacillus rhamnosus GG
  Activity of rheumatoid arthritis: no statistically significant differences
